The NIST ThermoML archive (doi:10.1021/je0302248)
Numbers after ± are expanded uncertainties.

Conditions: Liquid

CCO[Si](OCC)(OCC)OCC [tetraethoxysilane]
vapor or sublimation pressure (393.4 K): 24 ± 7.2 kPa
vapor or sublimation pressure (419.2 K): 53.32 ± 16 kPa

CCO [ethanol]
vapor or sublimation pressure (319.5 K): 24 ± 7.2 kPa
vapor or sublimation pressure (336.5 K): 53.32 ± 16 kPa
